Data set [1] in a line: Stability test: loss on drying with time. Format: physicochemical. The text has this: The present inventors confirmed the stability of the hydrate resulting from the process of the invention determining the loss on drying with time.
To that end a well-mixed sample of the sodium tungstate hydrate resulting from Example 2, was subjected to the following protocol. Dry clean glass-stopper, shallow weighing bottle under the same conditions to be employed in the determination. Cool to room temperature in a desiccator and take the weight accurately (W1) g. Transfer to the bottle 1 g of the sample, cover it and accurately weigh the bottle and the contents (W2) g. Place the loaded bottle in the drying chamber (oven), remove the stopper and leave it also in the chamber. Dry the sample to the specified time and temperature to a constant mass (105° C.). After drying is completed, open the drying chamber, close the bottle promptly and allow it to cool to room temperature (where applicable) in a desiccator before weighing. Weigh the bottle and the contents (W3) g. Calculation:
The loss on drying should be not more than 15% (w/w).

Data set [2] can be described thus: Drying of the hydrate salt: loss of the water molecules (IR). Format: physicochemical. How it is done: In this case, the precipitation was performed by adding 2.0 volumes of either MeOH, EtOH, acetone or IPA at room temperature. After overnight stirring at room temperature, the suspensions were filtered at room temperature, and the cakes were washed by percolation with 0.4 volumes of H2O/solvent (1:1), and with 0.4 volumes of the corresponding solvent. […]
This phenomenon was observed when recording the IR spectra of the synthesized and dried products, as none of them show the stretching and bending bands typical of water molecules (FIG. 2).

As for `O.O.[Na+].[Na+].[O]=[W](=[O])([O-])[O-]` [Na2WO4·2H2O, sodium tungstate dihydrate], the “loss on drying with time” value in data set [1] (6-month 40° C./75% HR) and in data set [1] (18-month test at 25° C./60% HR) was “the loss was maintained” in each case. In addition, the loss on drying entry in data set [1] (sodium tungstate hydrate resulting from Example 2, dried at 105° C. to constant mass, limit not more than 15% (w/w)) was “below 15%”. In addition, in data set [2] (drying processes at 100-110° C., IR spectra), the “stability of the waters of hydration on drying” value was “dehydration processes of the tungsten salt were detected”. In addition, the “fraction of the starting salt that lost the molecules of water” value in data set [2] (vacuum dried at a mild temperature of about 50° C.) was roughly 94%.

These data come from patent publication US20260097073A1, “PROCESS FOR THE PREPARATION OF TUNGSTEN (VI) SALT HYDRATES” (OXOLIFE, S.L., priority 2022, published 2026).
